Measured values reported in patent US4668672A, “Feed compositions containing pyridylalkylhydrazides” (SmithKline Beckman Corporation, priority 1985, dated 1987).
Where “and” joins values, the source holds several entries; their conditions need not be identical. Identical values can stand only once. Like-named read-outs stand apart in the source and are kept apart here.

Experiments:
Chick growth study = type: in vivo, broiler chicks; details: for response vs control in vivo at 40 ppm / response vs control in vivo at 50 ppm / response vs control in vivo at 10 ppm / response vs control in vivo at 49 ppm: Gallus gallus, feed or water, 408 h; for response vs control in vivo at 40 ppm: 40 ppm in feed; for response vs control in vivo at 50 ppm: 50 ppm in feed; for feed conversion / weight gain: chickens; for response vs control in vivo at 10 ppm: 10 ppm in feed; for response vs control in vivo at 49 ppm: 49 ppm in feed
Experimental: 512 Day old broiler chicks, selected for weight, health and sex, are housed in an environmentally controlled room with temperature at 37.7° and humidity at 40%. Chicks are fed ad libitum. Water is offered ad libitum. A corn or, preferably, rye basal ration is fed during the acclimation period (days 1 and 2), then, mixed with the compound under test or used as a control on days 3-17. Either 8 or 16 chicks are used for each test or control group.

[1] = system: swine ileal or cecal inoculum (filtrate of cannula material); test: In vitro swine procedure (incubation of inoculum from cannulated swine, in vitro fistula procedure); set-up: species or system swine (Yorksire barrow)
[2] = days 3-17, read-out: Feed Gain (3-17 day)
[3] = days 3-17, read-out: Weight (17 day)
[4] = 166.67 ppm, 5 hours at 37°, blank control = 100%
[5] = 1.67 ppm, 5 hours at 37°, blank control = 100%
[6] = 16.67 ppm, 5 hours at 37°, blank control = 100%
[7] = 50.0 (unit not given) in feed, days 3-17
[8] = 116.67 ppm, 5 hours at 37°, blank control = 100%

COC(=O)NN=Cc1ccncc1
response vs control in vivo at 40 ppm (Chick growth study; [2]): 102% | response vs control in vivo at 40 ppm (Chick growth study; [3]): 96.9%

COC(=O)NN=Cc1cccnc1
response vs control in vivo at 50 ppm (Chick growth study; [2]): 102% | response vs control in vivo at 50 ppm (Chick growth study; [3]): 98.4%

3-azabicyclo[3.2.2]nonane-3-carbothioic acid 2-[1-(2-pyridyl)ethyl]hydrazide
feed conversion (Chick growth study; fed at 50 ppm): better feed conversion | weight gain (Chick growth study; fed at 50 ppm): increased weight gain

CC(=NNC(=S)N1CCCCCC1)c1ccccn1 [Compound 10]
response vs control in vivo at 10 ppm (Chick growth study; [2]): 92.3% | response vs control in vivo at 10 ppm (Chick growth study; [3]): 110% | response vs control in vivo at 50 ppm (Chick growth study; [2]): 80.6% | response vs control in vivo at 50 ppm (Chick growth study; [3]): 103%

CC(=NNC(=S)N1CCCCC1)c1ccccn1 [drawing 2]
LYS (lysine) [1, 4]: 23 % of Control Values and 18 % of Control Values | VFA (total of volatile fatty acids) [1, 4]: 63 % of Control Values

COC(=O)NN=C(C)c1ccccn1 [drawing 3]
LYS (lysine) [1, 5]: 70 % of Control Values | LYS (lysine) [1, 6]: 134 % of Control Values | VFA (total of volatile fatty acids) [1, 6]: 94 % of Control Values | LYS (lysine) [1, 4]: 99 % of Control Values | VFA (total of volatile fatty acids) [1, 4]: 88 % of Control Values

COC(=O)NN=Cc1ccccn1 [drawing 4]
LYS (lysine) [1, 5]: 65 % of Control Values | VFA (total of volatile fatty acids) [1, 5]: 90 % of Control Values | LYS (lysine) [1, 6]: 140 % of Control Values | VFA (total of volatile fatty acids) [1, 6]: 104 % of Control Values | LYS (lysine) [1, 4]: 109 % of Control Values | VFA (total of volatile fatty acids) [1, 4]: 109 % of Control Values

CC(=NNC(N)=S)c1ccccn1 [drawing 5]
GLU (glucose) [1, 4]: 147 % of Control Values | LAC (L lactic acid) [1, 4]: 88 % of Control Values | LYS (lysine) [1, 4]: 137 % of Control Values | VFA (total of volatile fatty acids) [1, 4]: 43 % of Control Values

CC(=NNC(=S)N1CC2CCC(CC2)C1)c1ccccn1 [drawing 6]
VFA (total of volatile fatty acids) [1]: 97 % of Control Values | LYS (lysine) [1, 4]: 107 % of Control Values

CSC(=S)NN=C(C)c1ccccn1 [drawing 7]
GLU (glucose) [1, 4]: 95 % of Control Values | LAC (L lactic acid) [1, 4]: 113 % of Control Values | LYS (lysine) [1, 4]: 103 % of Control Values | VFA (total of volatile fatty acids) [1, 4]: 89 % of Control Values

CC(=NNC(=S)N1CC2CCC(CC2)C1)c1ccccn1 [drawing 8]
response vs control in vivo at 50 ppm (Chick growth study; [2]): 80.6% | response vs control in vivo at 50 ppm (Chick growth study; [3]): 103%

CC(=NNC(=S)N1CCCCC1)c1ccccn1 [drawing 9]
response vs control in vivo at 10 ppm (Chick growth study; [2]): 92.3% | response vs control in vivo at 10 ppm (Chick growth study; [3]): 110% | response vs control in vivo at 50 ppm (Chick growth study; [2]): 80.6% | response vs control in vivo at 50 ppm (Chick growth study; [3]): 103%

COC(=O)NN=Cc1ccccn1 [drawing 12]
response vs control in vivo at 50 ppm (Chick growth study; [2]): 86.4% | response vs control in vivo at 50 ppm (Chick growth study; [3]): 119%

COC(=O)NN=C(C)c1ccccn1 [drawing 13]
response vs control in vivo at 50 ppm (Chick growth study; [2]): 94% | response vs control in vivo at 50 ppm (Chick growth study; [3]): 110%

CC(=NNC(N)=S)c1ccccn1 [drawing 14]
response vs control in vivo at 50 ppm (Chick growth study; [2]): 91.2% | response vs control in vivo at 50 ppm (Chick growth study; [3]): 107%

CC(=NNC(=S)N1CC2CCC(CC2)C1)c1ccccn1 [drawing 15]
response vs control in vivo at 49 ppm (Chick growth study; [2]): 84.1% | response vs control in vivo at 49 ppm (Chick growth study; [3]): 102%

CSC(=S)NN=C(C)c1ccccn1 [drawing 16]
response vs control in vivo at 40 ppm (Chick growth study; [2]): 86.6% | response vs control in vivo at 40 ppm (Chick growth study; [3]): 72.8%

CC(=NNC(=S)N1CCCCCC1)c1ccccn1 [hexahydro-1H-azepine-1-carbothioic acid [1-(2-pyridinyl)-ethylidinyl]hydrazide]
feed conversion (Chick growth study; fed at 10 and 50 ppm): better feed conversion | weight gain (Chick growth study; fed at 10 and 50 ppm): increased weight gain

Virginiamycin [reference compound]
Feed Gain (3-17 day) (Chick growth study; [7]): 85.0 % of Control | Weight (17 day) (Chick growth study; [7]): 118.9 % of Control | GLU (glucose) [1]: 190 % of Control Values | LAC (L lactic acid) [1, 8]: 17 % of Control Values | LYS (lysine) [1, 8]: 171 % of Control Values | VFA (total of volatile fatty acids) [1, 8]: 25 % of Control Values
